What was measured:
[1] = target: T1, Adenosine receptor A1 (Homo sapiens) (UniProt P30542); experiment: Positive allosteric enhancement of human cloned adenosine A1 receptor expressed in CHO cells assessed as inhibition of forskolin-induced cAMP accumulation at 10 uM using [3H]-cAMP by scintillation counting relative to control; type: functional, cell-based
T1 sequence (whole entry): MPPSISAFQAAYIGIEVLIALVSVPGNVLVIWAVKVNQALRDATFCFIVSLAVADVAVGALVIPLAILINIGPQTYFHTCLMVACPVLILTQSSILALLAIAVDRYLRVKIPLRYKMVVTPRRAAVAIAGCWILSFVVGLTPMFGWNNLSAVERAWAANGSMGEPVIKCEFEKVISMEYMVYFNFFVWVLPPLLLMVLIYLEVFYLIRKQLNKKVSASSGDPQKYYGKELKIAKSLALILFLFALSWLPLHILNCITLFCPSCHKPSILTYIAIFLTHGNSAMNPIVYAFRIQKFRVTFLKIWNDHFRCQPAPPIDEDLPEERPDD

[2] = target: T1, Adenosine receptor A1 (Homo sapiens); experiment: Positive allosteric enhancement of human cloned adenosine A1 receptor expressed in CHO cells assessed as inhibition of forskolin-induced cAMP accumulation at 100 nM using [3H]-cAMP by scintillation counting relative to control in presence of 1 pM of CCPA; type: functional, cell-based
[3] = target: T1, Adenosine receptor A1 (Homo sapiens); experiment: Ratio of PD81723 to compound for positive allosteric enhancement of human cloned adenosine A1 receptor expressed in CHO cells assessed as inhibition of forskolin-induced cAMP accumulation at 10 uM using [3H]-cAMP by scintillation counting; type: functional, cell-based
[4] = target: T1, Adenosine receptor A1 (Homo sapiens); experiment: Displacement of [3H]DPCPX from human adenosine A1 receptor expressed in CHO cells at 10 uM after 120 mins by scintillation counting; type: cell-based
[5] = Displacement of [3H]-ZM241385 from human adenosine A2 receptor expressed in CHO cells at 10 uM after 120 mins by scintillation counting; type: cell-based
[6] = target: T2, Adenosine receptor A3 (Homo sapiens) (UniProt P0DMS8); experiment: Displacement of [3H]-MRE-3008-F20 from human adenosine A3 receptor expressed in CHO cells at 10 uM after 120 mins by scintillation counting; type: cell-based
T2 sequence (whole entry): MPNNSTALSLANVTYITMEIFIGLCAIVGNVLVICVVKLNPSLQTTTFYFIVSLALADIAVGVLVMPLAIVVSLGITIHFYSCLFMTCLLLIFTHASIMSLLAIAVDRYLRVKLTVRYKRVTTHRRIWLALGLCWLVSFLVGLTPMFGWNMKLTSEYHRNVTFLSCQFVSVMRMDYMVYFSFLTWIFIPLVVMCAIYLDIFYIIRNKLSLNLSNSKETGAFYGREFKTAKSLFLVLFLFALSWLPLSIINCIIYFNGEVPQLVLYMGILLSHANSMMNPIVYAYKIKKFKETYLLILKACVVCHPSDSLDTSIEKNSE

[7] = target: T1, Adenosine receptor A1 (Homo sapiens); experiment: Binding affinity to human adenosine A1 receptor expressed in CHO cells assessed as fold Bmax shift of [3H]-CCPA at 10 uM after 90 mins by [3H]-CCPA binding assay relative to control; type: cell-based
[8] = target: T1, Adenosine receptor A1 (Homo sapiens); experiment: Binding affinity to human adenosine A1 receptor expressed in CHO cells assessed as fold Ki shift of CCPA at 10 uM after 90 mins by [3H]-CCPA displacement assay relative to control; type: cell-based

Compound	inhibition [1] [%]	inhibition [2] [%]	Ratio [3]	inhibition [4] [%]	inhibition [5] [%]	inhibition [6] [%]	fold change (FC) [7]	fold change (FC) [8]
Cc1ccc(Cc2c(-c3ccccc3)sc(N)c2C(=O)c2ccc(Cl)cc2)cc1	56	58	3	< 10	< 10	< 10	5.6	5.1
Nc1sc(-c2ccccc2)c(Cc2ccc(Cl)cc2)c1C(=O)c1ccc(Cl)cc1	61	64	3	< 10	< 10	< 10	6.4	5.6
COc1ccc(Cc2c(-c3ccc(OC)cc3)sc(N)c2C(=O)c2ccc(Cl)cc2)cc1	52	50	3	< 10	< 10	< 10	5.1	4.6
COc1cc(Cc2c(-c3ccccc3)sc(N)c2C(=O)c2ccc(Cl)cc2)cc(OC)c1OC	47	43	3	< 10	< 10	< 10	4.3	3.8
Cc1ccc(Cc2c(-c3ccc(Cl)cc3)sc(N)c2C(=O)c2ccc(Cl)cc2)cc1	71	69	3	< 10	< 10	< 10	8.6	7.2
Nc1sc(-c2ccccc2)c(Cc2ccc(C(F)(F)F)cc2)c1C(=O)c1ccc(Cl)cc1	69	66	3	< 10	< 10	< 10	9.1	8.9
Nc1sc(-c2ccc(F)cc2)c(Cc2ccc(Cl)cc2)c1C(=O)c1ccc(Cl)cc1	53	55	3	< 10	< 10	< 10	5.3	4.1
Nc1sc(-c2ccc(F)cc2)c(Cc2ccc(F)cc2)c1C(=O)c1ccc(Cl)cc1	45	41	3	< 10	< 10	< 10	4.8	3.7
COc1ccc(-c2sc(N)c(C(=O)c3ccc(Cl)cc3)c2Cc2ccc(Cl)cc2)cc1	49	48	3	< 10	< 10	< 10	5	3.9
Cc1ccc(Cc2c(-c3ccc(F)cc3)sc(N)c2C(=O)c2ccc(Cl)cc2)cc1	59	62	3	< 10	< 10	< 10	6.5	5.6
CC(C)(C)Cc1c(-c2ccc(Cl)cc2)sc(N)c1C(=O)c1ccc(Cl)cc1							5.8	4
Nc1sc(-c2ccccc2)c(Cc2ccc(F)cc2)c1C(=O)c1ccc(Cl)cc1	58	57	3	< 10	< 10	< 10	6.3	5.4
COc1ccc(Cc2sc(N)c(C(=O)c3ccc(Cl)cc3)c2-c2ccccc2)cc1	35	36		< 10	< 10	< 10	2.8	2
COc1cccc(Cc2sc(N)c(C(=O)c3ccc(Cl)cc3)c2-c2ccccc2)c1	32	31		< 10	< 10	< 10	2.6	1.9
CC(C)Oc1ccc(Cc2c(-c3ccccc3)sc(N)c2C(=O)c2ccc(Cl)cc2)cc1	65	67	3	< 10	< 10	< 10	7.6	5.8
Nc1sc(Cc2cccc3ccccc23)c(-c2ccccc2)c1C(=O)c1ccc(Cl)cc1	21	22		< 10	< 10	< 10	1.5	1.4
Nc1sc(Cc2ccc(C(F)(F)F)cc2)c(-c2ccccc2)c1C(=O)c1ccc(Cl)cc1	25	24		< 10	< 10	< 10	1.8	1.6
Nc1sc(-c2ccc(Cl)cc2)c(Cc2ccccc2)c1C(=O)c1ccc(Cl)cc1	69	67	3	< 10	< 10	< 10	7.2	8.4
COc1ccc(Cc2c(-c3ccc(Cl)cc3)sc(N)c2C(=O)c2ccc(Cl)cc2)cc1	70	67	3	< 10	< 10	< 10	8.5	6.6
CCOc1ccc(Cc2c(-c3ccccc3)sc(N)c2C(=O)c2ccc(Cl)cc2)cc1	68	69	3	< 10	< 10	< 10	9.1	8
CSc1ccc(Cc2c(-c3ccc(F)cc3)sc(N)c2C(=O)c2ccc(Cl)cc2)cc1	52	55	3	< 10	< 10	< 10	5.3	5.2
CC(C)Oc1ccc(Cc2sc(N)c(C(=O)c3ccc(Cl)cc3)c2-c2ccccc2)cc1	26	26		< 10	< 10	< 10	1.8	2
Nc1sc(-c2ccc(F)cc2)c(Cc2ccccc2)c1C(=O)c1ccc(Cl)cc1	50	49	3	< 10	< 10	< 10	4.9	3.9
Nc1sc(-c2ccc(Cl)cc2)c(CN2CCN(c3ccc(Cl)cc3)CC2)c1C(=O)c1ccc(Cl)cc1							11.4	8.7
Nc1sc(Cc2ccccc2)c(-c2ccccc2)c1C(=O)c1ccc(Cl)cc1	34	35		< 10	< 10	< 10	2.6	1.9
COc1ccc(Cc2sc(N)c(C(=O)c3ccc(Cl)cc3)c2-c2ccccc2)cc1C	31	30		< 10	< 10	< 10	2.7	2.4
CCOc1ccc(Cc2sc(N)c(C(=O)c3ccc(Cl)cc3)c2-c2ccccc2)cc1	22	21		< 10	< 10	< 10	1.5	1.5
Nc1sc(Cc2ccc(OC(F)(F)F)cc2)c(-c2ccccc2)c1C(=O)c1ccc(Cl)cc1	24	25		< 10	< 10	< 10	1.8	1.8
Nc1sc(-c2ccccc2)c(Cc2cccc3ccccc23)c1C(=O)c1ccc(Cl)cc1	57	58		< 10	< 10	< 10	6.1	4.3

— ChEMBL document CHEMBL3612058, “Synthesis and biological evaluation of a new series of 2-amino-3-aroyl thiophene derivatives as agonist allosteric modulators of the A1 adenosine receptor. A position-dependent effect study” (Eur J Med Chem, 2015)
